The structures appear in SMILES notation. Read-outs that look alike come from different tables or passages of the source.

The values below come from patent US9266857B2, “Bicyclic AZA compounds as muscarinic M1 receptor agonists” (Heptares Therapeutics Limited, priority 2012, dated 2016).

Holding throughout (type): cell-based
The target in test [1] is T1, human muscarinic M1 receptor (Homo sapiens, UniProt P11229).
T1 construct: expressed in transfected cells
T1 sequence (P11229 1-460): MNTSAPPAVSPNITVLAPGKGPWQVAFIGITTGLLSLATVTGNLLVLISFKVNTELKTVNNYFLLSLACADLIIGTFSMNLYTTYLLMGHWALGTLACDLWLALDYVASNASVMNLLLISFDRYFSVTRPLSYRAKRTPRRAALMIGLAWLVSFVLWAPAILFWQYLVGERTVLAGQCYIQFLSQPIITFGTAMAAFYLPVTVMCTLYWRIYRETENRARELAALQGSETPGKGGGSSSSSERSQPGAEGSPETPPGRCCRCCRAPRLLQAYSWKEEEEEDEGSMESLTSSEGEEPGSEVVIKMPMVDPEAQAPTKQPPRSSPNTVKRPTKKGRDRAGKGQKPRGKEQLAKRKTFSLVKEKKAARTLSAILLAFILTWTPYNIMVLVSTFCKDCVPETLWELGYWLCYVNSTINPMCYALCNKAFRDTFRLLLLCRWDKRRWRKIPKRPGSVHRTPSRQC
In words: Alphascreen Surefire phospho-ERK1/2 functional assay, M1. As to conditions: for EC50: phospho-ERK1/2, read-out: pEC50 M1 (converted); for Emax: CHO. As to the method:
(§1) ERK1/2 phosphorylation is a downstream consequence of both Gq/11 and Gi/o protein coupled receptor activation, making it highly suitable for the assessment of M1, M3 (Gq/11 coupled) and M2, M4 receptors (Gi/o coupled), rather than using different assay formats for different receptor subtypes. CHO cells stably expressing the human muscarinic M1, M2, M3 or M4 receptor were plated (25K/well) onto 96-well tissue culture plates in MEM-alpha+10% dialysed FBS. Once adhered, cells were serum-starved overnight. Agonist stimulation was performed by the addition of 5 μL agonist to the cells for 5 min (37° C.). Media was removed and 50 μL of lysis buffer added. After 15 min, a 4 μL sample was transferred to 384-well plate and 7 μL of detection mixture added. Plates were incubated for 2 h with gentle agitation in the dark and then read on a PHERAstar plate reader.
(§2) pEC50 and Emax figures were calculated from the resulting data for each receptor subtype.

Test [2] has as its target T2, human muscarinic M2 receptor (Homo sapiens, UniProt P08172).
T2 construct: expressed in transfected cells
T2 sequence (P08172 1-466): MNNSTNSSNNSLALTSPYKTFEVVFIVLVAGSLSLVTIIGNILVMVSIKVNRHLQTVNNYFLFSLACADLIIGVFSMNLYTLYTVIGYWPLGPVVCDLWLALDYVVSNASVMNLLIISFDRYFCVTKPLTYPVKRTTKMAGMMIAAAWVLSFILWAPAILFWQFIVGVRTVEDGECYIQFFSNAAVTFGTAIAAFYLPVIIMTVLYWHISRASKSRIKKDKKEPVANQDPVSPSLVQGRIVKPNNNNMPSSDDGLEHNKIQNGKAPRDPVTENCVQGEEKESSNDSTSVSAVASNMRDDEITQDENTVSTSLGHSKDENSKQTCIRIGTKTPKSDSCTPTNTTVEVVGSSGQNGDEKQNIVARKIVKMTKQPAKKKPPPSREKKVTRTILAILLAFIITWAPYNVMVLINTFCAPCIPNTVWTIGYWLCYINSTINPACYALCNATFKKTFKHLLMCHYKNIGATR
Nature of the test: Alphascreen Surefire phospho-ERK1/2 functional assay, M2. The conditions noted are these: for EC50: CHO cells stably expressing human M2, phospho-ERK1/2, read-out: pEC50 M2 (converted); for Emax: CHO, read-out: % Emax cf. ACh, M2. As to the method:
as §1, §2
For orientation: Alpha assays give light when donor and acceptor beads are brought close together.

Test [3] has as its target T3, human muscarinic M3 receptor (Homo sapiens, UniProt P20309).
T3 construct: expressed in transfected cells
In words: Alphascreen Surefire phospho-ERK1/2 functional assay, M3. As to conditions: for EC50: CHO cells stably expressing human M3, phospho-ERK1/2, read-out: pEC50 M3 (converted); for Emax: CHO, read-out: % Emax cf. ACh, M3. As to the method:
as §1, §2

Test [4] deals with T4, human muscarinic M4 receptor (Homo sapiens, UniProt P08173).
T4 construct: expressed in transfected cells
T4 sequence (P08173 1-479): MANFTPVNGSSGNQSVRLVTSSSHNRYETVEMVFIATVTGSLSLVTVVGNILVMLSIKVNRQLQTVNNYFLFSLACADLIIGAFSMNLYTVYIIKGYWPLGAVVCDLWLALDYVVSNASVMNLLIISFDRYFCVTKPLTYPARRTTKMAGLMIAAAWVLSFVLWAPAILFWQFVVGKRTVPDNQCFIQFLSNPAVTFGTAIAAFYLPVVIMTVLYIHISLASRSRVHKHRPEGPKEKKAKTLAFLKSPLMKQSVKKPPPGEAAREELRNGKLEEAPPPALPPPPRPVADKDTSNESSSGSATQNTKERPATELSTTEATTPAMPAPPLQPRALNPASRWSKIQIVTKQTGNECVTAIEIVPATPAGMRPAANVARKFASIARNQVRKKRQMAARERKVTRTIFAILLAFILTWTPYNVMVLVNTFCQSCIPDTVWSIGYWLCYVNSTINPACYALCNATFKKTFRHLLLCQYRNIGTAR
In words: Alphascreen Surefire phospho-ERK1/2 functional assay, M4. The conditions noted are these: for EC50: phospho-ERK1/2, read-out: pEC50 M4 (converted); for Emax: CHO. As to the method: as §1, §2

Where [5] appears, read: CHO cells stably expressing human M1.
The mark [6] stands for this setting: CHO cells stably expressing human M4.
Setting [7] is: read-out: % Emax cf. ACh, M1, CHO cells stably expressing human M1, relative to ACh.
[8] abbreviates: read-out: % Emax cf. ACh, M4, CHO cells stably expressing human M4, relative to ACh.

T3 sequence (P20309 whole entry): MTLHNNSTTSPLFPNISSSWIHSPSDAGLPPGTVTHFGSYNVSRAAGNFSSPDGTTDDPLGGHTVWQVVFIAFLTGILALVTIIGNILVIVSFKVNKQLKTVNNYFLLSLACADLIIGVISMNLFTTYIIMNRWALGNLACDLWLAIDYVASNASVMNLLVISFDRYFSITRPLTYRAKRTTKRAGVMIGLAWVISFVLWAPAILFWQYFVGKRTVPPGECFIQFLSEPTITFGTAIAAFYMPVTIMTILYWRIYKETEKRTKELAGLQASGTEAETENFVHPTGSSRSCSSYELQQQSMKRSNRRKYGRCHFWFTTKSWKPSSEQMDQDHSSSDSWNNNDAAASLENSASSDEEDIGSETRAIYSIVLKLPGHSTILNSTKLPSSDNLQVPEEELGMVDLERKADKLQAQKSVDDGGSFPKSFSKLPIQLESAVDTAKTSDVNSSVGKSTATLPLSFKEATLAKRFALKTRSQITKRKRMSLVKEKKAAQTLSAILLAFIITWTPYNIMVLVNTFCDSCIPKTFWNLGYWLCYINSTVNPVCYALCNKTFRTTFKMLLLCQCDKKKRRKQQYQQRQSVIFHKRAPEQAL

With `CCOC(=O)N1CC2CC(N3CCC(C(=O)NC4(C)CCC4)CC3)CC1C2` (mixture of isomers) [Example 7 - mixture of diastereomers, ethyl 3-{4-[(1-methylcyclobutyl)carbamoyl]piperidin-1-yl}-6-azabicyclo[3.2.1]octane-6-carboxylate], the EC50 in test [1] (setting [5]) was 55 nM; in test [2], over 20 µM; in test [3], over 20 µM; in test [4] (setting [6]), 447 nM. The maximum response (Emax) – broadly, the maximal effect, on the per cent scale that the assay sets – in test [1] (read-out: % Emax cf. ACh, M1) is 127%; in test [2] it was 10%; in test [3], 4%; in test [4] (read-out: % Emax cf. ACh, M4) it was 81%.
Turning to `CCOC(=O)N1CC2CC(N3CCC(C(=O)NC4(C)CCC4)CC3)CC2C1` (mixture of isomers) [Example 8 - mixture of diastereomers, ethyl 5-{4-[(1-methylcyclobutyl)carbamoyl]piperidin-1-yl}hexahydrocyclopenta[c]pyrrole-2(1H)-carboxylate], the EC50 in test [1] (setting [5]) was 110 nM; in test [2] it was over 20 µM; in test [3] it was over 20 µM; in test [4] (setting [6]) it was 1700 nM. For the same compound, the Emax in test [1] (read-out: % Emax cf. ACh, M1) stood at 118%; in test [2], 5%; in test [3] it was 8%; in test [4] (read-out: % Emax cf. ACh, M4), 29%.
As for `CCOC(=O)N1CCC2(CC(N3CCC(C(=O)NC4(C)CCC4)CC3)C2)C1` (mixture of isomers) [Example 9 - mixture of diastereomers, ethyl 2-{4-[(1-methylcyclobutyl)carbamoyl]piperidin-1-yl}-6-azaspiro[3.4]octane-6-carboxylate], the EC50 was 51.3 nM in test [1] (setting [5]), over 20 µM in test [2], over 20 µM in test [3] and 380 nM in test [4] (setting [6]). The Emax in test [1] (read-out: % Emax cf. ACh, M1) was 142%; in test [2] it was 6%; in test [3], 5%; in test [4] (read-out: % Emax cf. ACh, M4), 66%.
With `CC#CCOC(=O)N1CCC2(CC(N3CCC(C(=O)NC4(C)CCC4)CC3)C2)C1` (mixture of isomers) [Example 10 - mixture of diastereomers, but-2-yn-1-yl 2-{4-[(1-methylcyclobutyl)carbamoyl]piperidin-1-yl}-6-azaspiro[3.4]octane-6-carboxylate], the EC50 in test [1] (setting [5]) is 155 nM; in test [2], over 20 µM; in test [3] it was over 20 µM; in test [4] (setting [6]) it was 339 nM. Also, the Emax in test [1] (read-out: % Emax cf. ACh, M1) came out at 93%; in test [2], 10%; in test [3], 3%; in test [4] (read-out: % Emax cf. ACh, M4) it was 42%.
As to `CCOC(=O)N1CCC2(CC(N3CCC(F)(C(=O)NC4(C)CCC4)CC3)C2)C1` (mixture of isomers) [Example 11 - mixture of diastereomers, ethyl 2-{4-fluoro-4-[(1-methylcyclobutyl)carbamoyl]piperidin-1-yl}-6-azaspiro[3.4]octane-6-carboxylate], the EC50 was 28.2 nM in test [1] (setting [5]), over 20 µM in test [2], over 20 µM in test [3] and 204 nM in test [4] (setting [6]). Further, the Emax in test [1] (read-out: % Emax cf. ACh, M1) stood at 112%; in test [2], 6%; in test [3], 4%; in test [4] (read-out: % Emax cf. ACh, M4) it was 77%.
Consider `CCOC(=O)N1CC2(CCC(N3CCC(C(=O)NC4(C)CCC4)CC3)C2)C1` (racemic) [Example 12 - racemic, ethyl 6-{4-[(1-methylcyclobutyl)carbamoyl]piperidin-1-yl}-2-azaspiro[3.4]octane-2-carboxylate], for which the EC50 was 35.5 nM in test [1] (setting [5]), over 20 µM in test [2], over 20 µM in test [3] and 53.7 nM in test [4] (setting [6]). Moreover, the Emax in test [1] (read-out: % Emax cf. ACh, M1) was found to be 141%; in test [2] it was 8%; in test [3] it was 78%; in test [4] (read-out: % Emax cf. ACh, M4), 49%.
On to `C#CCOC(=O)N1CC2(CCC(N3CCC(C(=O)NC4(C)CCC4)CC3)C2)C1` (racemic) [Example 13 - racemic, prop-2-yn-1-yl 6-{4-[(1-methylcyclobutyl)carbamoyl]piperidin-1-yl}-2-azaspiro[3.4]octane-2-carboxylate], for which the EC50 in test [1] (setting [5]) is 15.8 nM; in test [2], over 20 µM; in test [3] it was over 20 µM; in test [4] (setting [6]) it was 52.5 nM. Moreover, the Emax in test [1] (read-out: % Emax cf. ACh, M1) came to 139%; in test [2], 7%; in test [3], 39%; in test [4] (read-out: % Emax cf. ACh, M4), 44%.
`CCOC(=O)N1C2CCC1CC(N1CCC(C(=O)NC3(C)CCC3)CC1)C2` (single isomer, unassigned) [Example 1 - Isomer 2, ethyl 3-{4-[(1-methylcyclobutyl)carbamoyl]piperidin-1-yl}-8-azabicyclo[3.2.1]octane-8-carboxylate]: the EC50 was 41.7 nM in test [1] (setting [5]), over 20 µM in test [2], over 20 µM in test [3] and 170 nM in test [4] (setting [6]). For the same compound, the “% Emax cf. ACh, M1” value in test [1] (CHO cells stably expressing human M1, relative to ACh) was found to be 102%. For the same compound, the Emax in test [2] was determined as 0%; in test [3] it was 18%. In addition, the “% Emax cf. ACh, M4” value in test [4] (CHO cells stably expressing human M4, relative to ACh, listed as 1 - Isomer 2) is given as 98%.
Regarding `C#CCOC(=O)N1C2CCC1CC(N1CCC(C(=O)NC3(C)CCC3)CC1)C2` (single isomer, unassigned) [Example 2 - Isomer 1, prop-2-yn-1-yl 3-{4-[(1-methylcyclobutyl)carbamoyl]piperidin-1-yl}-8-azabicyclo[3.2.1]octane-8-carboxylate], the EC50 is 331 nM in test [1] (setting [5]), over 20 µM in test [2], over 20 µM in test [3] and over 20000 nM in test [4] (setting [6]). Also, the Emax came to 94% in test [1] (setting [7]), 14% in test [2], 7% in test [3] and 11% in test [4] (setting [8]).
On to `CC#CCOC(=O)N1C2CCC1CC(N1CCC(C(=O)NC3(C)CCC3)CC1)C2` (single isomer, unassigned) [Example 3 - Isomer 2, but-2-yn-1-yl 3-{4-[(1-methylcyclobutyl)carbamoyl]piperidin-1-yl}-8-azabicyclo[3.2.1]octane-8-carboxylate], for which the EC50 in test [1] (setting [5]) was 363 nM; in test [2], over 20 µM; in test [3], over 20 µM; in test [4] (setting [6]), 851 nM. For the same compound, the Emax worked out at 109% in test [1] (setting [7]), 10% in test [2], 2% in test [3] and 65% in test [4] (setting [8]).
